Earlier results on three compounds are cited in patent US20030203004A1, “Compositions comprising short and long chain fatty acids and methods of their use for the management of body weight” (priority 2002, published 2003).

The structures appear in SMILES notation.

The conditions of series [1]: rats; jejunally infused neat, 0.2 mL/hr for seven hours.
The conditions of series [2]: humans; sodium propionate included in bread; attributed to delayed gastric emptying rate.
For series [3] the following is noted: rats.

As to `CCCCC/C=C\C/C=C\CCCCCCCC(=O)O` [linoleic acid], the “total daily caloric intake” value in series [1] is “significantly reduce”.
In the case of `CCCCCCCC/C=C\CCCCCCCC(=O)O` [oleic acid], the “total daily caloric intake” value in series [1] was “significantly reduce”.
`CCC(=O)[O-].[Na+]` [sodium propionate]: in series [2], the satiety entry is “induction of satiety”. Besides, the “effect on gastric emptying” value in series [3] is “no effect”.
